In PMC9150102 (Journal of Medicinal Chemistry, 2022):
Read-outs that look alike come from different tables or passages of the source.

Key:
[1] = biological target: T1, Na^+/K^+ ATPase-alpha1 isoform purified from dog kidneys (Canis lupus familiaris, UniProt P50997); set-up: method as in PMID 36153005; settings: cited from earlier work
T1 construct: excised from 1–3-year-old male beagle dogs; from tissue; host or cells: dog (beagle) kidney outer medulla, Jørgensen purification

Albino Swiss CD-1 mice = tested on: Albino Swiss CD-1 mice; set-up: method as in PMID 36153005; settings: i.v. administration; cited from earlier work
[2] = cited from earlier work
[3] = Acute toxicity (LD50) in mice; settings: male, Albino Swiss CD-1, mouse, in vivo, po
Experimental: Acute toxicity (LD50) was preliminarily evaluated in mice following i.v. and oral drug administration.
Control animals received the vehicle only.
Drug toxicity studies in mice
Acute toxicity was determined in CD1 mice. Separate mice groups were either orally treated, or
intravenously injected, with increasing doses of the tested substance to identify the dose causing 50%
mortality (LD50). Acute mortality was assessed at 30 min after compound administration; survival was

[4] = biological target: T1, Na^+/K^+ ATPase-alpha1 isoform purified from dog kidneys; assay: Na+/K+ ATPase activity inhibition, purified dog kidney enzyme (32P-ATP hydrolysis); type: biochemical
Experimental: Compounds were tested in a concentration range from 10^–9 to 10^–4 M on a purified renal Na^+/K^+ ATPase preparation with a specific activity of 14 μmol/min/mg protein.
Figure 2 Na^+/K^+ ATPase activity inhibition in a dog purified enzyme preparation. All compounds were tested in a concentration range from 10^–9 to 10^–4 M in comparison to ouabain.
The inhibitory effect of compounds was tested at multiple concentrations on Na^+/K^+ ATPase-alpha1 isoform purified from dog kidneys. […]
Renal Na+/K+ ATPase purification and activity
Purification of renal Na+/K+ ATPase was performed according to the method of Jørgensen2. Kidneys were excised from 1–3-year-old male beagle dogs, obtained from the General Pharmacology Department of Sigma-tau, Pomezia, Italy, under pentobarbital anesthesia. Kidneys were sliced and the outer medulla was dissected, pooled and suspended (1g in 10 ml) in a sucrose-histidine solution, containing 250 mM sucrose, 30 mM histidine and 5 mM EDTA, pH 7.2 and homogenized. The homogenate was centrifuged at 6,000 g for 15 min, the supernatant was decanted and centrifuged at 48,000 g for 30 min. The pellet was suspended in the sucrose-histidine buffer and incubated for 20 min with a sodium-dodecyl-sulphate (SDS) solution, dissolved in a gradient buffer, containing 25 mM imidazole and 1 mM EDTA, pH 7.5. The sample was layered on the top of a sucrose discontinuous gradient (10, 15 and 29.4%) and centrifuged at 60,000 g for 115 min. The final pellet was suspended in the gradient buffer.
Na+/K+ ATPase activity was assayed by measuring 32P-ATP hydrolysis, as previously described3.
Increasing concentrations of the standard ouabain, or tested compound, were incubated with 0.3 μg of purified dog kidney enzyme for 10 min at 37°C in 120 μl final volume of a medium, containing 140 mM NaCl, 3 mM MgCl2, 50 mM Hepes-Tris, 3 mM ATP, pH 7.5. Then, 10 μl of incubation solution containing 10 mM KCl and 20 nCi of 32P-ATP (3-10 Ci/mmol, Perkin Elmer) were added, the reaction continued for 15 min at 37°C and was stopped by acidification with 20% ice-cold perchloric acid.
32P was separated by centrifugation with activated Charcoal (Norit A, Serva) and the radioactivity was measured. Effects of increasing concentrations of the tested compound were compared to ouabain, as positive standard, and to vehicle (control) at 37°C. The inhibitory activity was expressed as percent of activity in control. The concentration of compound causing 50% inhibition of the Na+/K+ ATPase activity (IC50) was calculated by non-linear fitting of data points (KaleidagraphTM, Sinergy Software). […]

SERCA2a = biological target: T2, SERCA2a (Cavia porcellus, UniProt A0A286XFU8); assay: SERCA2a ATPase activity, Ca2+ dependency in cardiac SR microsomes from healthy guinea pigs; type: biochemical, guinea pig; settings: for SERCA2a–Ca2+ affinity (KdCa) modulation (words): 10 and 100 nM, healthy guinea pig SR preparations
T2 construct: from tissue; host or cells: guinea pig left ventricle, SR-enriched microsomes
Experimental: SERCA2a ATPase activity was assessed in SR preparations from healthy guinea pig hearts. Ca^2+ dependency of ATPase activity was measured, and kinetic parameters (KdCa and Vmax) were estimated at compound concentrations of 10 and 100 nM.
[…] […] Data are the mean ± SEM. *p < 0.05 (one-way RM ANOVA plus post hoc Tukey’s multiple comparisons or paired t-test).
Measurements were performed in cardiac SR microsomes (guinea pig) and in whole tissue homogenates (rat). Cardiac preparations included SERCA2a and PLN. To test for PLN involvement in the effect of compounds, SERCA1 activity was measured in PLN-free microsomes (from guinea pig skeletal muscle) before and after reconstitution with the synthetic PLN1–32 inhibitory fragment at a ratio of 300:1 for PLN/SERCA. […] Either an increase in Vmax (rat) or a decrease in KdCa (increased Ca^2+ affinity) (guinea pig) stands for enhancement of SERCA function. […]
Left ventricles (LV) were dissected from rat and guinea -pig of healthy and failing preparations and frozen until use. Tissues were homogenized, subjected to centrifugation to obtain SR -enriched microsomes and sarcomeric proteins were extracted, as previously described 4.
(§1) In the case of guinea-pig hearts, LV tissues were homogenized in 4 volumes of 10 mM NaHCO3, 1 mM PMSF, 10 μg/ml aprotinin and leupeptin (pH 7) and centrifuged at 12,000g for 15 minutes. Supernatants were filtered and centrifuged at 100,000 g for 30 min. Contractile proteins were extracted by suspending the pellets with 0.6 M KCl, 30 mM histidine, pH 7 and further centrifugation at 100,000 g for 30 min.
(§2) Final pellets were reconstituted with 0.3 M sucrose, 30 mM histidine, pH 7, to obtain SR-enriched […]
SERCA2a ATPase activity was measured as the rate of 32P-ATP release at multiple Ca2+ concentrations (100-2000 nM) in the absence and presence of tested compounds, as previously described5. Increasing concentrations of each compound were pre-incubated with 2 μg of cardiac preparations for 5 min at 4° C in 80 μl of a solution containing 100 mM KCl, 5 mM MgCl2, 1 μM A23187, 20 mM Tris, pH 7.5. Then, 20 μl of 5 mM Tris-ATP containing 50 nCi of 32P-ATP (3-10 Ci/mmol, Perkin Elmer) were added. The ATP hydrolysis was continued for 15 min at 37°C and the reaction was stopped by acidification with 100 μl of 20% ice-cold perchloric acid. 32P was separated by centrifugation with activated charcoal (Norit A, Serva) and the radioactivity was measured. SERCA2a-dependent ATPase activity was identified as the portion of total hydrolytic activity inhibited by cyclopiazonic acid (CPA, 10 µM). Technical replicates were used to ensure the reliability of single values. […]

STZ diabetic rats = tested on: STZ diabetic rats; set-up: method as in PMID 36153005; settings: cited from earlier work
[5] = tested on: SERCA1 reconstituted with PLN1–32 fragment; assay: SERCA1 ATPase activity after reconstitution with PLN1-32 fragment; type: biochemical, guinea pig; settings: PLN/SERCA 300:1
Experimental: Data are the mean ± SEM. *p < 0.05 (one-way RM ANOVA plus post hoc Tukey’s multiple comparisons or paired t-test).
Measurements were performed in cardiac SR microsomes (guinea pig) and in whole tissue homogenates (rat). Cardiac preparations included SERCA2a and PLN. To test for PLN involvement in the effect of compounds, SERCA1 activity was measured in PLN-free microsomes (from guinea pig skeletal muscle) before and after reconstitution with the synthetic PLN1–32 inhibitory fragment at a ratio of 300:1 for PLN/SERCA. […] Either an increase in Vmax (rat) or a decrease in KdCa (increased Ca^2+ affinity) (guinea pig) stands for enhancement of SERCA function.
(rats). As verified by Western blot, cardiac microsomes preparations included SERCA2a and PLN and skeletal muscle ones included SERCA1 only.
SERCA stimulation4, compounds were also tested on SERCA1 in microsomes of guinea-pig skeletal muscle (PLN-free) before and after reconstitution with the PLN1-32 inhibitory fragment at a ratio of 300:1 […]
Tissues were homogenized, subjected to centrifugation to obtain SR -enriched microsomes and sarcomeric proteins were extracted, as previously described 4.
as §1, §2
SERCA2a ATPase activity was measured as the rate of 32P-ATP release at multiple Ca2+ concentrations (100-2000 nM) in the absence and presence of tested compounds, as previously described5. Increasing concentrations of each compound were pre-incubated with 2 μg of cardiac preparations for 5 min at 4° C in 80 μl of a solution containing 100 mM KCl, 5 mM MgCl2, 1 μM A23187, 20 mM Tris, pH 7.5. Then, 20 μl of 5 mM Tris-ATP containing 50 nCi of 32P-ATP (3-10 Ci/mmol, Perkin Elmer) were added. The ATP hydrolysis was continued for 15 min at 37°C and the reaction was stopped by acidification with 100 μl of 20% ice-cold perchloric acid. 32P was separated by centrifugation with activated charcoal (Norit A, Serva) and the radioactivity was measured. SERCA2a-dependent ATPase activity was identified as the portion of total hydrolytic activity inhibited by cyclopiazonic acid (CPA, 10 µM). Technical replicates were used to ensure the reliability of single values.
Reconstitution of SERCA1 with PLN1-32 synthetic fragment
Adult healthy male guinea-pigs were used to prepare SERCA1-enriched SR microsomes from fast-twitch hind leg muscles. Microsomes were prepared as described for SERCA2a preparations. For reconstitution experiments, SERCA1 (PLN-free) was pre-incubated with synthetic PLN1-32 fragment (canine sequence, Biomatik Corporation, Canada) in 20 mM imidazole, pH 7, at 1:300 SERCA1:PLN ratio for 30 min at room temperature. After pre-incubation, SERCA1 (PLN-free) alone, or reconstituted with PLN1-32 […]
fragment, was utilized for SERCA activity measurement by using 32P-ATP hydrolysis method at different

[6] = biological target: skeletal SERCA1 (sarcoplasmic reticulum calcium ATPase 1) (guinea pig (endogenous in skeletal muscle))
[7] = read-out: NKA Inhibition (IC50 µM)

T2 sequence (A0A286XFU8 entry or part of it): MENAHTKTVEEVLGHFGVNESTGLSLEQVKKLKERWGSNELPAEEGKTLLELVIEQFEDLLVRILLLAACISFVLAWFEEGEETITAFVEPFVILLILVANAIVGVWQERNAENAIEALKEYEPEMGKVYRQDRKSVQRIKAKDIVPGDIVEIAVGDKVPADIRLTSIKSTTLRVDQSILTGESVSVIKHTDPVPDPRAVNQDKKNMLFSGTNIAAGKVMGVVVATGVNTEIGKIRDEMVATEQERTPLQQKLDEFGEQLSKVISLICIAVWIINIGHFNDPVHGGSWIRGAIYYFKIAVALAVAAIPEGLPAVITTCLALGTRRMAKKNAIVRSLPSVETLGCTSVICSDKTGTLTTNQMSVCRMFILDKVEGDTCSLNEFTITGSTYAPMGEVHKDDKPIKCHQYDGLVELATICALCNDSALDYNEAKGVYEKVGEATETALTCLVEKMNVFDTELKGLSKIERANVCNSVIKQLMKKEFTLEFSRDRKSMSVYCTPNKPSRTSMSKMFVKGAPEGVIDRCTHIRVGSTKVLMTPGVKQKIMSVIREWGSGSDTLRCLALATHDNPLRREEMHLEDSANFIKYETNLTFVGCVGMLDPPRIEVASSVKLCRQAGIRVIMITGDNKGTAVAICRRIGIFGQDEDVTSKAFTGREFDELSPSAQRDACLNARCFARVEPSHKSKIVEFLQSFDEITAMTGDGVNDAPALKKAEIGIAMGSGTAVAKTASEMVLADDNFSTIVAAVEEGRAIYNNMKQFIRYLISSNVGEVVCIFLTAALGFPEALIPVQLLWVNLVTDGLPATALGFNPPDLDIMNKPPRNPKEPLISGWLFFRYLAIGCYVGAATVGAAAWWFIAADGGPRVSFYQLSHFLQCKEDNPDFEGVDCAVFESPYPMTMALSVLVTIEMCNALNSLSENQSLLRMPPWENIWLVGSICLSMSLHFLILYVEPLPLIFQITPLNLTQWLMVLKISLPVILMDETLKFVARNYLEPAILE

## C[C@]12CCC(=NOCCN)C[C@@H]1C(=O)C[C@@H]1[C@@H]2CC[C@]2(C)C(=O)CC[C@@H]12 (mixture of isomers) [istaroxime]
[1]; dog renal preparations
  IC50: 0.14 µM
Albino Swiss CD-1 mice
  LD50: 23 mg/kg
[2]
  half-life: ~1 h
[3]
  LD50 at 24 h: 200 mg/kg

## C[C@]12CC/C(=C\CCC(=O)O)C[C@@H]1[C@@H](O)C[C@@H]1[C@@H]2CC[C@]2(C)C(=O)CC[C@@H]12 [Compound 1]
[4]
  IC50: > 100 µM
SERCA2a; 100 nM
  SERCA2a Stimulation @100 nM (DELTA% KdCa): -15%
SERCA2a; 100 nM, guinea pig preparation
  SERCA2a KdCa reduced by: 15%

## C[C@]12CC/C(=C/CCC(=O)O)C[C@@H]1[C@@H](O)C[C@@H]1[C@@H]2CC[C@]2(C)C(=O)CC[C@@H]12 [Compound 2]
[4]
  IC50: > 100 µM
SERCA2a
  SERCA2a–Ca2+ affinity (KdCa) modulation (words): inactive

## C[C@]12CC/C(=C\CCC(=O)O)C[C@@H]1[C@H](O)C[C@@H]1[C@@H]2CC[C@]2(C)C(=O)CC[C@@H]12 [Compound 3]
SERCA2a
  SERCA2a–Ca2+ affinity (KdCa) modulation (words): inactive
SERCA2a; listed as compound 3
  SERCA2a–Ca2+ affinity (KdCa) modulation (words): only a trend to SERCA2a KdCa reduction

## C[C@]12CC/C(=C/CCC(=O)O)C[C@@H]1[C@H](O)C[C@@H]1[C@@H]2CC[C@]2(C)C(=O)CC[C@@H]12 [Compound 4]
[4]
  IC50: > 100 µM
SERCA2a
  SERCA2a–Ca2+ affinity (KdCa) modulation (words): inactive

## C[C@]12CC[C@H](CCCC(=O)O)C[C@@H]1[C@H](O)C[C@@H]1[C@@H]2CC[C@]2(C)C(=O)CC[C@@H]12 [Compound 6]
[4]
  IC50: > 100 µM
SERCA2a; 100 nM
  SERCA2a Stimulation @100 nM (DELTA% KdCa): -23%

## CCOC(=O)CCC[C@H]1CC[C@@]2(C)[C@H](C1)[C@@H](O)C[C@@H]1[C@@H]2CC[C@]2(C)C(=O)CC[C@@H]12 [Compound 7]
[4]; [7]
  IC50: > 100 µM
SERCA2a; 100 nM
  SERCA2a Stimulation @100 nM (DELTA% KdCa): -23%

## C[C@]12CC[C@H](CC(=O)O)C[C@@H]1[C@H](O)C[C@@H]1[C@@H]2CC[C@]2(C)C(=O)CC[C@@H]12 [Compound 9]
SERCA2a
  SERCA2a–Ca2+ affinity (KdCa) modulation (words): inactive

## CCOC(=O)C[C@H]1CC[C@@]2(C)[C@H](C1)[C@@H](O)C[C@@H]1[C@@H]2CC[C@]2(C)C(=O)CC[C@@H]12 [Compound 10]
[4]
  IC50: > 100 µM
SERCA2a; 100 nM
  SERCA2a Stimulation @100 nM (DELTA% KdCa): -26%

## C[C@]12CC[C@H](CCCCCC(=O)O)C[C@@H]1[C@@H](O)C[C@@H]1[C@@H]2CC[C@]2(C)C(=O)CC[C@@H]12 [Compound 11]
[4]; [7]
  IC50: > 100 µM
SERCA2a; 100 nM
  SERCA2a Stimulation @100 nM (DELTA% KdCa): -20%
SERCA2a
  SERCA2a–Ca2+ affinity (KdCa) modulation (words): slightly less active

## CCOC(=O)CCCCC[C@H]1CC[C@@]2(C)[C@H](C1)[C@@H](O)C[C@@H]1[C@@H]2CC[C@]2(C)C(=O)CC[C@@H]12 [Compound 12]
[4]; [7]
  IC50: > 100 µM
SERCA2a
  SERCA2a–Ca2+ affinity (KdCa) modulation (words): slightly less active

## C[C@]12CC/C(=N\OCC(=O)O)C[C@@H]1[C@H](O)C[C@@H]1[C@@H]2CC[C@]2(C)C(=O)CC[C@@H]12 [PST3093, reference compound]
SERCA2a; 1 nM
  SERCA2a KdCa reduced by: 18%
SERCA2a; 100 nM, guinea pig microsomal preparations
  SERCA2a KdCa change: −25%
SERCA2a; 100 nM, guinea pig preparation
  SERCA2a KdCa reduced by: 25%
[1]
  activity against Na+/K+ ATPase: inactive
STZ diabetic rats
  systolic indexes: improved systolic indexes
[2]
  half-life: ~10 h
[3]
  LD50 at 24 h: > 200 mg/kg

## PLN1–32 fragment: synthetic PLN1-32 inhibitory fragment of phospholamban (canine sequence, Biomatik) (MEKVQYLTRSAIRRASTIEMPQQARQKLQNLF) [reference compound]
[5]
  SERCA1 KdCa increased by (reconstitution with PLN1–32): 23–25%

## synthetic PLN(1-32) inhibitory fragment of phospholamban (from UniProt P26678 1-32) (peptide)
[6]
  increase of KdCa (Ca2+ dependency of SERCA1 ATPase activity, 32P-ATP, 37 °C) after reconstitution of skeletal muscle microsomes with PLN(1-32) at 300:1 PLN/SERCA; Vmax not affected: 23 to 25%
